According to patent publication US10844057B2, “Process for preparing JAK inhibitors and intermediates thereof” (priority 2018, dated 2020):
Read-outs that look alike come from different tables or passages of the source.

What was measured:
[1] = system: IL-2 stimulated STAT5 phosphorylation in Tall-1 human T cell line; assay: Inhibition of IL-2 stimulated pSTAT5 in Tall-1 T cells; format: cell-based
Description: Assay 2: Inhibition of IL-2 Stimulated pSTAT5 in Tall-1 T Cells
The potency of test compounds for inhibition of interleukin-2 (IL-2) stimulated STAT5 phosphorylation was measured in the Tall-1 human T cell line (DSMZ) using AlphaLisa.
Phosphorylated STAT5 was measured via the AlphaLISA SureFire Ultra pSTAT5 (Tyr694/699) kit (PerkinElmer).
Compounds were serially diluted in DMSO and dispensed acoustically to empty wells. Assay media (phenol red-free DMEM (Life Technologies) supplemented with 10% FBS (ATCC)) was dispensed (4 μL/well) and plates shaken at 900 rpm for 10 mins. Cells were seeded at 45,000 cells/well in assay media (4 μL/well), and incubated at 37° C., 5% CO2 for 1 hour, followed by the addition of IL-2 (R&D Systems; final concentration 300 ng/mL) in pre-warmed assay media (4 μL) for 30 minutes. […] The lysate was shaken at 900 rpm for 10 minutes at room temperature (RT). Phosphorylated STAT5 was measured via the pSTAT5 AlphaLisa kit (PerkinElmer). Freshly prepared acceptor bead mixture was dispensed onto lysate (5 μL) under green filtered <100 lux light. Plates were shaken at 900 rpm for 2 mins, briefly spun down, and incubated for 2 hrs at RT in the dark. Donor beads were dispensed (5 μL) under green filtered <100 lux light. Plates were shaken at 900 rpm for 2 minutes, briefly spun down, and incubated overnight at RT in the dark. Luminescence was measured with excitation at 689 nm and emission at 570 nm using an EnVision plate reader (PerkinElmer) under green filtered <100 lux light.
To determine the inhibitory potency of test compounds in response to IL-2, the average emission intensity of beads bound to pSTAT5 was measured in a human T cell line. IC50 values were determined from analysis of the inhibition curves of signal intensity versus compound concentration. Data are expressed as pIC50 (negative decadic logarithm IC50) values (mean±standard deviation).

[2] = system: TSLP-evoked TARC release in human peripheral blood mononuclear cells; assay: Inhibition of TSLP-evoked TARC release in human peripheral blood mononuclear cells; format: cell-based; conditions: Homo sapiens, PBMC, 48 h, read-out: pIC50 ± st. dev., inhibition of TSLP-evoked TARC release (converted)
Excerpt: Assay 4: Inhibition of TSLP-Evoked TARC Release in Human Peripheral Blood Mononuclear Cells
Thymic stromal lymphopoietin (TSLP) and thymus and activation-regulated chemokine (TARC) are overexpressed in asthmatic airways, and correlate with disease severity. In the lungs, TSLP may be released by bronchial epithelial cells in response to allergens and viral infections. TSLP signals through an IL-7Rα/TSLPR heterodimer found in a broad range of tissues and cell types, including epithelial cells, endothelial cells, neutrophils, macrophages, and mast cells. The binding of TSLP to its receptor induces a conformational change that activates JAK1 and JAK2 to phosphorylate various transcription factors, including STAT3 and STAT5. In immune cells, this triggers a cascade of intracellular events that result in cell proliferation, anti-apoptosis, dendritic cell migration, and production of Th2 cytokines and chemokines. In peripheral blood mononuclear cells (PBMC), TSLP has a proinflammatory effect by activating myeloid dendritic cells to attract and stimulate T cells, a process mediated by the chemoattractant TARC.
The potencies of the test compounds were measured for inhibition of TARC release.
PBMC aliquots (previously isolated from whole blood and frozen in aliquots at −80° C.) from 3 to 5 donors were thawed at 37° C. and added dropwise to 40 mL pre-warmed, sterile-filtered, complete RPMI media in 50 mL Falcon tubes. Cells were pelleted and resuspended in complete media at 2.24×10^6 cells/mL. […] Cells were allowed to rest for 1 hour at 37° C. with 5% CO2.
Compounds were received as 10 mM stock solutions in DMSO. 3.7-fold serial dilutions were performed to generate 9 concentrations of test compound in DMSO at 300× the final assay test concentration. […] 95 μL of 0.2% DMSO in complete media was added to the untreated control wells. Cells were pre-treated with compound for 1 hour at 37° C. with 5% CO2 prior to stimulation.
Immediately prior to use, an aliquot was thawed and prepared at 20× the final assay concentration in complete media. 10 μL of 20×TSLP was added to each well of PBMC, for a final assay concentration of 10 ng/mL. 10 μL of complete media was added to the unstimulated control wells. Cells were stimulated in the presence of compound for 48 hours at 37° C. with 5% CO2.
Following stimulation, the cell culture supernatants were harvested and TARC levels were detected by enzyme-linked immunosorbent assay (ELISA), using Human CCL17/TARC Quantikine ELISA Kit (R&D Systems # DDN00) according to the manufacturer's instructions.
For dose response analysis, the log [test compound (M)] was plotted versus the percent response values for each donor, and IC50 values were determined using a nonlinear regression analysis with GraphPad Prism Software using the 4-parameter sigmoidal dose-response algorithm with variable slope. Data are expressed as mean pIC50 (negative decadic logarithm IC50) values calculated from pIC50 values of individual donors and rounded to one decimal place.

[3] = biological target: JAK1 (Homo sapiens (Human), UniProt P23458); assay: Biochemical JAK kinase assay (LanthaScreen), JAK1; conditions: converted from pIC50 using Cheng-Prusoff; ATP 25 μM
Sequence of JAK1 (P23458 whole entry): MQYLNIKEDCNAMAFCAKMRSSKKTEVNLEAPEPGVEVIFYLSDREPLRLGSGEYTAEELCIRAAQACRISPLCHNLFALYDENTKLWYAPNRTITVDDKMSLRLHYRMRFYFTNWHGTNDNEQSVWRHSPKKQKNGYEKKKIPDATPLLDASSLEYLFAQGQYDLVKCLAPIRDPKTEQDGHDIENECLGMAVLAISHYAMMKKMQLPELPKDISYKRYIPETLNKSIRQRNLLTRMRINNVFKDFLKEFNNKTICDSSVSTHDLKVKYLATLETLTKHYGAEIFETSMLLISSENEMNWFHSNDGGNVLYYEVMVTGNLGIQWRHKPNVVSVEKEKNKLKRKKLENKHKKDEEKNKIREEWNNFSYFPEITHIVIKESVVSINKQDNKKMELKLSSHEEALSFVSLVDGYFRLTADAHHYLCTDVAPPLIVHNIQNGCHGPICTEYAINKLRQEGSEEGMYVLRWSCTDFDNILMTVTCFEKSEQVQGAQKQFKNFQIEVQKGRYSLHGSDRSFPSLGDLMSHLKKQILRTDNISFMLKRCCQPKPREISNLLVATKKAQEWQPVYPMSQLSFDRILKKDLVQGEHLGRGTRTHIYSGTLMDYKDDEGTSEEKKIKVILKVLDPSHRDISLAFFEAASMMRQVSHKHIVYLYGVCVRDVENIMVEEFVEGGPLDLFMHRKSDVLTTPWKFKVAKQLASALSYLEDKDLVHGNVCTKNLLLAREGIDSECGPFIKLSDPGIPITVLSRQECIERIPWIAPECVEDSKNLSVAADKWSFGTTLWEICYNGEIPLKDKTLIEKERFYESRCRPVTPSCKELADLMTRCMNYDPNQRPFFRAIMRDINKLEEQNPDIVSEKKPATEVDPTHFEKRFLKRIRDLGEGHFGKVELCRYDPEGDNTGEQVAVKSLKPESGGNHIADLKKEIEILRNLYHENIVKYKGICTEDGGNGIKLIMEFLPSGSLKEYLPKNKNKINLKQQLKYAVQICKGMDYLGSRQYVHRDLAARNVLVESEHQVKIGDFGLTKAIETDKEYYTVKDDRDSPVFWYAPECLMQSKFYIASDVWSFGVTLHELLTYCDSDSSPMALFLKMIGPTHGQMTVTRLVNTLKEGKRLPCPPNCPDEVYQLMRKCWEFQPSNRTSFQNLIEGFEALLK
Description: (§1) Assay 1: Biochemical JAK Kinase Assays
(§2) A panel of four LanthaScreen JAK biochemical assays (JAK1, 2, 3 and Tyk2) were carried in a common kinase reaction buffer (50 mM HEPES, pH 7.5, 0.01% Brij-35, 10 mM MgCl2, and 1 mM EGTA). Recombinant GST-tagged JAK enzymes and a GFP-tagged STAT1 peptide substrate were obtained from Life Technologies.
(§3) Serially diluted compounds were pre-incubated with each of the four JAK enzymes and the substrate in white 384-well microplates (Corning) at ambient temperature for 1 h. ATP was subsequently added to initiate the kinase reactions in 10 μL total volume, with 1% DMSO. […] Kinase reactions were allowed to proceed for 1 hour at ambient temperature before a 10 μL preparation of EDTA (10 mM final concentration) and Tb-anti-pSTAT1 (pTyr701) antibody (Life Technologies, 2 nM final concentration) in TR-FRET dilution buffer (Life Technologies) was added. The plates were allowed to incubate at ambient temperature for 1 h before being read on the EnVision reader (Perkin Elmer). Emission ratio signals (520 nm/495 nm) were recorded and utilized to calculate the percent inhibition values based on DMSO and background controls.
(§4) For dose-response analysis, percent inhibition data were plotted vs. compound concentrations, and IC50 values were determined from a 4-parameter robust fit model with the Prism software (GraphPad Software). Results were expressed as pIC50 (negative logarithm of IC50) and subsequently converted to pKi (negative logarithm of dissociation constant, Ki) using the Cheng-Prusoff equation.

[4] = biological target: JAK2 (Homo sapiens (Human), UniProt O60674); assay: Biochemical JAK kinase assay (LanthaScreen), JAK2; conditions: converted from pIC50 using Cheng-Prusoff; ATP 3 μM
Sequence of JAK2 (O60674 whole entry): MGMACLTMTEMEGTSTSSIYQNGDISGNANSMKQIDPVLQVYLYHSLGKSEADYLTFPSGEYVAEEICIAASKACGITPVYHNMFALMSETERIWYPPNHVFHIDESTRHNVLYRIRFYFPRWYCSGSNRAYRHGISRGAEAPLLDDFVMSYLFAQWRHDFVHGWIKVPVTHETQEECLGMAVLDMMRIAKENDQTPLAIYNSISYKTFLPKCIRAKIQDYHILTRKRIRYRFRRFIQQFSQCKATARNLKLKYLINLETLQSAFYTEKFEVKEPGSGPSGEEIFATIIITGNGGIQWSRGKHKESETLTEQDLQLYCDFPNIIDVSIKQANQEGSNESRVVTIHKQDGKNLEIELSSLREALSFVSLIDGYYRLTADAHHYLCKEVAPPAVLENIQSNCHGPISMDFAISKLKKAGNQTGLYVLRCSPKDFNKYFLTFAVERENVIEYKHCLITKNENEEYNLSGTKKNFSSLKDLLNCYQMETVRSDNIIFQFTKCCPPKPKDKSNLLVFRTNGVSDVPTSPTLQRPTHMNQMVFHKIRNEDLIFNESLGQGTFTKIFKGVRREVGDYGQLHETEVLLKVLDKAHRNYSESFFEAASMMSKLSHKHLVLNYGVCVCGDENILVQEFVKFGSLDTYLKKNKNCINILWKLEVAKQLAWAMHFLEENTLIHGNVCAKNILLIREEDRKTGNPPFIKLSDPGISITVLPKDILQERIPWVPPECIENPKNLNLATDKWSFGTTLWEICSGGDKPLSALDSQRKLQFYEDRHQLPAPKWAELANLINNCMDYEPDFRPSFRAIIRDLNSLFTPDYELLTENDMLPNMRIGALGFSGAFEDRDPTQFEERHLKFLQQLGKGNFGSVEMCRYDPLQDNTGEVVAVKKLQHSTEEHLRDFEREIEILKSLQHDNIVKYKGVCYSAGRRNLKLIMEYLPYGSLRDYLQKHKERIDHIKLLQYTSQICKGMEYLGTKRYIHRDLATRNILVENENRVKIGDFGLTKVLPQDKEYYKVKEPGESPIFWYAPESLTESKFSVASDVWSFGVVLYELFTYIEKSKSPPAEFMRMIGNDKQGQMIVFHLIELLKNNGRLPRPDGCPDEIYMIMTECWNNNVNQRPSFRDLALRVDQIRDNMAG
Description: as §1, §2, §3, §4

[5] = biological target: JAK3 (Homo sapiens (Human), UniProt P52333); assay: Biochemical JAK kinase assay (LanthaScreen), JAK3; conditions: converted from pIC50 using Cheng-Prusoff; ATP 1.6 μM
Sequence of JAK3 (P52333 whole entry): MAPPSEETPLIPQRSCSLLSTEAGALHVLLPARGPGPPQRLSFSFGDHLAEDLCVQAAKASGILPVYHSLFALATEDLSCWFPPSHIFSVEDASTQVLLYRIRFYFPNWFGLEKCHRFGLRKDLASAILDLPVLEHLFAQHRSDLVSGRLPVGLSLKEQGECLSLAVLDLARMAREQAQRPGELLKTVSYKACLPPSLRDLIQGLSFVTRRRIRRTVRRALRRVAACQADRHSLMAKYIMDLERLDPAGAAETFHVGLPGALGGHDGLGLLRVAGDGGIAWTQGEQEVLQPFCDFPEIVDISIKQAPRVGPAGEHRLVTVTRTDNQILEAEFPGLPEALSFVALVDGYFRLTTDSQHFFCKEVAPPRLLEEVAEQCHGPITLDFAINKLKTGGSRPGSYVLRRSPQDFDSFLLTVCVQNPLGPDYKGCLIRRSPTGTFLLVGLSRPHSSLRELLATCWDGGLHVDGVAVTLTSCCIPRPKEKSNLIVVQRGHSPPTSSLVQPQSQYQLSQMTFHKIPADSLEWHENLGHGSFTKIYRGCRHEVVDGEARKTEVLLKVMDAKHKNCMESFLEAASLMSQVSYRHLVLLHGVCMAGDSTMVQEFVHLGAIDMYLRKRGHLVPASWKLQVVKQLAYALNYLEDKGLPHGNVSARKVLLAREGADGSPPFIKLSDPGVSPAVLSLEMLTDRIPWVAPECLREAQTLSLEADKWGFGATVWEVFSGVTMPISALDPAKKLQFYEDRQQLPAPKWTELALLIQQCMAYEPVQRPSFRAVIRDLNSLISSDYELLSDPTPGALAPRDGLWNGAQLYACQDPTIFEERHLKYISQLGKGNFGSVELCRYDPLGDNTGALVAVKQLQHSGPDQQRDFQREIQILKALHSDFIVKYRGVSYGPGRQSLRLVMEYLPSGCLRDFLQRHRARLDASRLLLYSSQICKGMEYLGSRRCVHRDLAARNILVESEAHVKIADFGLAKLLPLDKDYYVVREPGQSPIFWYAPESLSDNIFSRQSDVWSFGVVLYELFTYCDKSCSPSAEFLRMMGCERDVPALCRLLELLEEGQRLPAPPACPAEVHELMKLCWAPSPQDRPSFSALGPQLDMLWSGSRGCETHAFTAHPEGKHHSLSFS
Description: as §1, §2, §3, §4

[6] = biological target: Tyk2 (Homo sapiens (Human), UniProt P29597); assay: Biochemical JAK kinase assay (LanthaScreen), Tyk2; conditions: converted from pIC50 using Cheng-Prusoff; ATP 10 μM
Sequence of Tyk2 (P29597 whole entry): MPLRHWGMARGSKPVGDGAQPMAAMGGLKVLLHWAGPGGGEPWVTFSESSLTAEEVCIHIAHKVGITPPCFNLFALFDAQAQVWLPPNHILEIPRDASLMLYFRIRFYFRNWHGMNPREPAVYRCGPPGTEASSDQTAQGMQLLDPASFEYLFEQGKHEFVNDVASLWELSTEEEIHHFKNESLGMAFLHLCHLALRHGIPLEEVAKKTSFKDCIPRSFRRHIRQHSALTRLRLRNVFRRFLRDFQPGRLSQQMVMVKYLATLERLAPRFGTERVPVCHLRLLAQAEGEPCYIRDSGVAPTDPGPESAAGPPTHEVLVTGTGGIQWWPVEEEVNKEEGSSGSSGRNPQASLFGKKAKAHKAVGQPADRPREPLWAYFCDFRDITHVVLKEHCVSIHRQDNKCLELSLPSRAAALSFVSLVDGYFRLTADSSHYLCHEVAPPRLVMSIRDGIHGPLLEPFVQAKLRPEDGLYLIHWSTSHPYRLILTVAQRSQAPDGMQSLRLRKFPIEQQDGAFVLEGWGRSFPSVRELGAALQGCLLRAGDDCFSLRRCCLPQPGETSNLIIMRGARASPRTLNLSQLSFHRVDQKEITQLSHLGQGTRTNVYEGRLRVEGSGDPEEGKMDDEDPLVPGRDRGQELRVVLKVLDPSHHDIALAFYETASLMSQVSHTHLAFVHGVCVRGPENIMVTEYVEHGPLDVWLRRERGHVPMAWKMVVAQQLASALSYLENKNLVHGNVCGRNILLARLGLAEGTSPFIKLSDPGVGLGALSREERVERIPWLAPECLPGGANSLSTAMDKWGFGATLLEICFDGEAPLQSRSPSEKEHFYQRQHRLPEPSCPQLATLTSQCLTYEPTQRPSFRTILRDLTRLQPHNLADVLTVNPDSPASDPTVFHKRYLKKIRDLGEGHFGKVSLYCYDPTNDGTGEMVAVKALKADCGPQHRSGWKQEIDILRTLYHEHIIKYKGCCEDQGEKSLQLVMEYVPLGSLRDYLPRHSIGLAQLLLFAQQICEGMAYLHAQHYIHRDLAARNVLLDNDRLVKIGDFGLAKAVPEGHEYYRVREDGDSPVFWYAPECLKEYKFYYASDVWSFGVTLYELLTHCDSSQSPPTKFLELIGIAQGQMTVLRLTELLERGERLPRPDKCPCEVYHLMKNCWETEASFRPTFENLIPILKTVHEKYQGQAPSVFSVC
Description: as §1, §2, §3, §4

[7] = Lung and plasma exposure in mice after oral aspiration; format: in vivo; conditions: mouse, other: oral aspiration, 50 µg/animal; for Kp at 5 h: Balb/c, lung and plasma, lung ng/g to plasma ng/mL, mice, read-out: Lung to Plasma ratio at 5 hr; for concentration at 5 h: Balb/c mice, 1 mg/mL, 50 μL via oral aspiration
Description: Adult Balb/c mice from Harlan were used in the assay. […] Animals were placed in lateral recumbency post dose and monitored for full recovery from anesthesia before being returned to their home cage. Four hours later, animals were once again briefly anesthetized and challenged with either vehicle or IL-13 (0.03 μg total dose delivered, 50 μL total volume) via oral aspiration before being monitored for recovery from anesthesia and returned to their home cage. One hour after vehicle or IL-13 administration, whole blood and lungs were collected for both pSTAT6 detection in lung homogenates using a Perkin Elmer AlphaLISA® SureFire® Ultra™ HVp-STAT6 (Tyr641) assay kit and for total drug concentration analysis in both lung and plasma. Blood samples were centrifuged (Eppendorf centrifuge, 5804R) for 4 minutes at approximately 12,000 rpm at 4° C. to collect plasma. […] Plasma and lung levels of test compound were determined by LC-MS analysis against analytical standards constructed into a standard curve in the test matrix. A lung to plasma ratio was determined as the ratio of the lung concentration in ng/g to the plasma concentration in ng/mL at 5 hours.

[8] = TALL-1, read-out: Tall-1 pIC50 (converted)
[9] = IL-2 300 ng/mL, pSTAT5 AlphaLisa, Tall-1 cells, read-out: Tall-1 pIC50 (converted)
[10] = lung, read-out: Lung Concentration (ng/g) at 5 hr
[11] = plasma, read-out: Plasma Concentration (ng/mL) at 5 hr

## CCc1cc(O)ccc1-c1ccc2c(-c3nc4c([nH]3)CN(C(C)C)[C@H](C(=O)N3CCCN(C)CC3)C4)n[nH]c2c1 [Example 4, (S)-(2-(6-(2-ethyl-4-hydroxyphenyl)-1H-indazol-3-yl)-5-isopropyl-4,5,6,7-tetrahydro-3H-imidazo[4,5-c]pyridin-6-yl)(4-methyl-1,4-diazepan-1-yl)methanone]
[1]; [8]
  IC50: 2.51 nM
[2]
  IC50: 158 nM

## CCc1cc(O)ccc1-c1ccc2c(-c3nc4c([nH]3)CN(C(C)C)[C@H](C(=O)N3CC[C@H](N(C)C)C3)C4)n[nH]c2c1 [Example 6, ((S)-3-(dimethylamino)pyrrolidin-1-yl)((S)-2-(6-(2-ethyl-4-hydroxyphenyl)-1H-indazol-3-yl)-5-isopropyl-4,5,6,7-tetrahydro-3H-imidazo[4,5-c]pyridin-6-yl)methan One]
[1]; [8]
  IC50: 2 nM
[2]
  IC50: 158 nM

## CCc1cc(O)ccc1-c1ccc2c(-c3nc4c([nH]3)CN(CC)[C@H](C(=O)N3CC(N(C)C)C3)C4)n[nH]c2c1 [Example 9, (S)-(3-(dimethylamino)azetidin-1-yl)(5-ethyl-2-(6-(2-ethyl-4-hydroxyphenyl)-1H-indazol-3-yl)-4,5,6,7-tetrahydro-3H-imidazo[4,5-c]pyridin-6-yl)methanone]
[3]
  JAK1 pKi: 10.3
[4]
  JAK2 pKi: 10.7
[5]
  JAK3 pKi: 10.3
[6]
  Tyk2 pKi: 9.2
[1]; [9]
  IC50: 2 nM
[7]
  Kp at 5 h: 339
[7]; [10]
  concentration at 5 h: 7750 ± 1650 ng/g
[7]; [11]
  concentration at 5 h: 23 ± 6 ng/mL

## CCc1cc(O)ccc1-c1ccc2c(-c3nc4c([nH]3)CN(CC)[C@H](C(=O)N3CC(C)(N(C)C)C3)C4)n[nH]c2c1 [Example 10, (S)-(3-(dimethylamino)-3-methylazetidin-1-yl)(5-ethyl-2-(6-(2-ethyl-4-hydroxyphenyl)-1H-indazol-3-yl)-4,5,6,7-tetrahydro-3H-imidazo[4,5-c]pyridin-6-yl)methan One]
[3]
  JAK1 pKi: 10.4
[4]
  JAK2 pKi: 10.6
[5]
  JAK3 pKi: 10.2
[6]
  Tyk2 pKi: 9.1
[1]; [9]
  IC50: 2.51 nM
[7]
  Kp at 5 h: 216
[7]; [10]
  concentration at 5 h: 5130 ± 2200 ng/g
[7]; [11]
  concentration at 5 h: 24 ± 6 ng/mL

## CCc1cc(O)ccc1-c1ccc2c(-c3nc4c([nH]3)CN(C(C)C)[C@H](C(=O)N3CC(C)(N(C)C)C3)C4)n[nH]c2c1 [Example 11, (S)-(3-(dimethylamino)-3-methylazetidin-1-yl)(2-(6-(2-ethyl-4-hydroxyphenyl)-1H-indazol-3-yl)-5-isopropyl-4,5,6,7-tetrahydro-3H-imidazo[4,5-c]pyridin-6-yl)methan One]
[3]
  JAK1 pKi: 10.0
[4]
  JAK2 pKi: 10.8
[5]
  JAK3 pKi: 9.9
[6]
  Tyk2 pKi: 9.1
[1]; [9]
  IC50: 2 nM
[7]
  Kp at 5 h: 271
[7]; [10]
  concentration at 5 h: 15000 ± 3350 ng/g
[7]; [11]
  concentration at 5 h: 55 ± 21 ng/mL

## CCCN1Cc2[nH]c(-c3n[nH]c4cc(-c5ccc(O)cc5CC)ccc34)nc2C[C@H]1C(=O)N1CC(N(C)C)C1 [Example 12, (S)-(3-(dimethylamino)azetidin-1-yl)(2-(6-(2-ethyl-4-hydroxyphenyl)-1H-indazol-3-yl)-5-propyl-4,5,6,7-tetrahydro-3H-imidazo[4,5-c]pyridin-6-yl)methan One]
[3]
  JAK1 pKi: 10.5
[4]
  JAK2 pKi: 10.6
[5]
  JAK3 pKi: 10.3
[6]
  Tyk2 pKi: 9.0
[1]; [9]
  IC50: 2 nM
[7]
  Kp at 5 h: 281
[7]; [10]
  concentration at 5 h: 6940 ± 4250 ng/g
[7]; [11]
  concentration at 5 h: 25 ± 9 ng/mL

## CCCN1Cc2[nH]c(-c3n[nH]c4cc(-c5ccc(O)cc5CC)ccc34)nc2C[C@H]1C(=O)N1CC(C)(N(C)C)C1 [Example 13, (S)-(3-(dimethylamino)-3-methylazetidin-1-yl)(2-(6-(2-ethyl-4-hydroxyphenyl)-1H-indazol-3-yl)-5-propyl-4,5,6,7-tetrahydro-3H-imidazo[4,5-c]pyridin-6-yl)methan One]
[3]
  JAK1 pKi: 10.3
[4]
  JAK2 pKi: 10.5
[5]
  JAK3 pKi: 9.8
[6]
  Tyk2 pKi: 9.0
[1]; [9]
  IC50: 2.51 nM
[7]
  Kp at 5 h: 330
[7]; [10]
  concentration at 5 h: 7460 ± 3080 ng/g
[7]; [11]
  concentration at 5 h: 23 ± 2.5 ng/mL
